Measurements published in paper PMC6162330, “Insights into a dual function amide oxidase/macrocyclase from lankacidin biosynthesis” (Nature Communications, 2018).

Columns and labels:
LkcE [1] = target: T1, LkcE (Streptomyces rochei, UniProt G4V2H3); assay: X-ray crystallography, […] Å; mass spectrometry of released cofactor; type: binding; settings: non-covalent; co-purified; selenomethionyl holo crystal
T1 construct: recombinant from E. coli (pBG-102), His6-SUMO tag removed by HRV3C protease

LkcE [2] = target: T1, LkcE; assay: X-ray crystallography, […] Å, co-crystal; type: binding; settings: active site, one of the two per site, no turnover
[3] = target: LkcE wild type (amide oxidase/macrocyclase of lankacidin biosynthesis, Streptomyces rochei) (Streptomyces rochei); assay: SAXS; recombinant LkcE in solution; Rg 31.0 Å, Dmax 91 Å; compared with the homodimer's calculated mass and the LkcEWT crystal structure

T1 sequence (G4V2H3 entry or part of it): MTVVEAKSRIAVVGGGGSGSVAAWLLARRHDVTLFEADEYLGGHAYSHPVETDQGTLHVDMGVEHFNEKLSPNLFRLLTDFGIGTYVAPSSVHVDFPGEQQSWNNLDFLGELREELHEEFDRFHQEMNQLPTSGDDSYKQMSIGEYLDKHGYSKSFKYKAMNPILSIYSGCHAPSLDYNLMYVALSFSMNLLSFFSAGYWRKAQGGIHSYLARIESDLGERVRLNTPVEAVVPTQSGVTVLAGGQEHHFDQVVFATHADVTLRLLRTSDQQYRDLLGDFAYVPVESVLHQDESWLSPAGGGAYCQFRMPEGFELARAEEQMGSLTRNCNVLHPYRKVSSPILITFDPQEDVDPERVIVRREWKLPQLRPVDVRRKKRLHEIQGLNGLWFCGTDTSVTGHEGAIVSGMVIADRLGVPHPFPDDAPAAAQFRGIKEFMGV

Cc1cc2nc3c(=O)[nH]c(=O)nc-3n(C[C@H](O)[C@H](O)[C@H](O)COP(=O)(O)OP(=O)(O)OC[C@H]3O[C@@H](n4cnc5c(N)ncnc54)[C@H](O)[C@@H]3O)c2cc1C [FAD]
X-ray crystallography, 3.15 Å; mass spectrometry of released cofactor (LkcE [1]): the FAD cofactor is non-covalently bound

CCOC(=O)[C@H](C)C(C)=O [compound 4, EMAA]
X-ray crystallography, 2.80 Å, co-crystal (LkcE [2]; position overlaps DATD): clear electron density attributable to EMAA and DATD

C=CCNC(=O)[C@H](O)[C@@H](O)C(=O)NCC=C [compound 5, DATD]
X-ray crystallography, 2.80 Å, co-crystal (LkcE [2]; position overlaps EMAA): clear electron density attributable to EMAA and DATD

LkcE wild type (amide oxidase/macrocyclase of lankacidin biosynthesis, Streptomyces rochei) (enzyme)
stoichiometry N [3]: 2
